Source: paper PMC8421423, “Cellular model system to dissect the isoform-selectivity of Akt inhibitors” (Nature Communications, 2021)
Where “and” joins values, the source holds several entries; their conditions need not be identical. Identical values can stand only once. Like-named read-outs stand apart in the source and are kept apart here.

Legend:
[1] = target: Akt1 (Homo sapiens, UniProt P31749); assay: STK HTRF KinEASE activity-based assay (IC50); details: for Log ratio IC50 [Akt] / IC50 [Akt], Akt1 / Akt2: biochemical activity based assay, log units
Akt1, sequence (P31749 whole entry): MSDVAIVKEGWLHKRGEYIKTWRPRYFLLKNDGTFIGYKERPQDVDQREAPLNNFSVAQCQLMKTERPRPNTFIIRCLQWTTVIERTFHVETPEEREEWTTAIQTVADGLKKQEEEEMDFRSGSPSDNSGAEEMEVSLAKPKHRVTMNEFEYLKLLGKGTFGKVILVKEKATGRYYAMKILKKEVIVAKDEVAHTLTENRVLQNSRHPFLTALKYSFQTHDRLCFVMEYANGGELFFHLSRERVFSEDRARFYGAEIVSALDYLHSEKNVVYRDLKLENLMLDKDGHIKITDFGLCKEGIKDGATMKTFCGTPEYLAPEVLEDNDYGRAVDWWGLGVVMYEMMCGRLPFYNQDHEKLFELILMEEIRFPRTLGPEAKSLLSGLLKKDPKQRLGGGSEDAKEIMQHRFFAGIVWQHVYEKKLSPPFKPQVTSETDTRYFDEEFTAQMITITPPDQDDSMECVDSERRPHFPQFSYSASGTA
Method: (§1) The biochemical half maximal inhibitory concentrations (IC50) were determined with the STK HTRF KinEASE assay (Cisbio) according to the manufactor’s instructions. Briefly: 5 µL Kinase solution and 2.5 µL inhibitor solution (8% DMSO in HTRF buffer) were incubated for 1 h before the reaction was started by addition of 2.5 µL starting solution containing ATP and substrate peptide. […] After reaction completion (Akt1: 60 min, Akt2: 20 min, Akt3: 15 min), 10 µL of stop solution were added. […] The quotient of both intensities were recorded at eight different inhibitor concentrations and data fit to a Hill 4-parameter equation with Quattro software suite (Quattro Research GmbH, Martinsried, Germany). Each reaction was performed in duplicates and at least three independent determinations of each IC50 were made.

[2] = system: Ba/F3^myr-Akt2 cells; assay: CellTiter-Glo cell viability assay
[3] = system: Ba/F3^myr-Akt3 cells; assay: CellTiter-Glo cell viability assay; details: for Log ratio EC50 [Akt] / EC50 [Akt], Akt3 / Akt2: cell viability assay Ba/F3 myr-Akt cells, log units
[4] = target: Akt3 (Homo sapiens, UniProt Q9Y243); assay: STK HTRF KinEASE activity-based assay (IC50)
Akt3, sequence (Q9Y243 whole entry): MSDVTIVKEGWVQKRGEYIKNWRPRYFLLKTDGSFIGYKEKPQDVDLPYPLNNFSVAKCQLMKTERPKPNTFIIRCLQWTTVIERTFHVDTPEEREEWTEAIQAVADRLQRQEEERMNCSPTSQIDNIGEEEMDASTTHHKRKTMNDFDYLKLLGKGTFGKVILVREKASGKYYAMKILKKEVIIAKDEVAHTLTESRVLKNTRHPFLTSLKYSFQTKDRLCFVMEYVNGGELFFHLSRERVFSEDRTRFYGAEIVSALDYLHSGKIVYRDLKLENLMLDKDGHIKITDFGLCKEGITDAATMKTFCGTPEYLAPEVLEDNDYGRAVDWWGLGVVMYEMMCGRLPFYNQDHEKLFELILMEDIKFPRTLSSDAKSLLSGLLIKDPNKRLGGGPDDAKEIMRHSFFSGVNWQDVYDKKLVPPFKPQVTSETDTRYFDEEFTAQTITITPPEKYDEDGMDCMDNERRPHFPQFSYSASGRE

[5] = system: parental Ba/F3 cells; assay: CellTiter-Glo cell viability assay; format: cell-based, murine
Method: On day 0, cells were plated into white 384-well cell culture plates (Greiner Bio-One) using a Multidrop reagent dispenser (Thermo Fisher Scientific) at cell numbers that ensure linear and optimal luminescent signal intensity (Ba/F3myr-Akt1: 600 cells/well, Ba/F3myr-Akt2: 800 cells/well, Ba/F3myr-Akt3: 800 cells/well). […] Cell viability was analyzed on day 4 using the CellTiter-Glo Assay (Promega) as per the manufacturer’s instructions. […] All experimental points were measured in duplicates for each plate and were replicated in at least three plates.

[6] = system: Ba/F3^myr-Akt1 cells; assay: CellTiter-Glo cell viability assay; details: for Log ratio EC50 [Akt] / EC50 [Akt], Akt1 / Akt2: cell viability assay Ba/F3 myr-Akt cells, log units
[7] = target: Akt2 (Homo sapiens, UniProt P31751); assay: STK HTRF KinEASE activity-based assay (IC50)
Akt2, sequence (P31751 whole entry): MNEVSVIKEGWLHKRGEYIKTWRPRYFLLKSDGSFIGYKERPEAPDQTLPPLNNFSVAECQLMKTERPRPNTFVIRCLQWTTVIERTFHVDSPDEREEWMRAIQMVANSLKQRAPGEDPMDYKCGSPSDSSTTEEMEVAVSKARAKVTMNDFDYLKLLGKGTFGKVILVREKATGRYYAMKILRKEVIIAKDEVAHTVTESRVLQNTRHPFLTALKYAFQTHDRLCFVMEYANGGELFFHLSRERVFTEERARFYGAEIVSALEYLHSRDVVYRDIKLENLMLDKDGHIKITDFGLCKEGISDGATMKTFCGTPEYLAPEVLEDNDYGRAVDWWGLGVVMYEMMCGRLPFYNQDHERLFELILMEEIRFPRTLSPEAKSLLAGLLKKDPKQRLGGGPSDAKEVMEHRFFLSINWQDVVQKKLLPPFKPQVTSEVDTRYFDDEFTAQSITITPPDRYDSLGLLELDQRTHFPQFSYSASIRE
Method: as §1

[8] = HTRF IC50 Akt1, Mean, mean of replicates
[9] = HTRF IC50 Akt1, individual determinations, single replicates
[10] = IC50 Akt1, HTRF, ATP at KM, 1 h preincubation
[11] = Mus musculus, read-out: CTG BaF3myr-Akt2, Mean, mean of replicates
[12] = read-out: CTG BaF3myr-Akt2, individual determinations, single replicates
[13] = Mus musculus, read-out: CTG BaF3myr-Akt3, Mean, mean of replicates
[14] = Mus musculus, read-out: CTG BaF3myr-Akt3, individual determinations, single replicates
[15] = read-out: CTG BaF3myr-Akt3, individual determinations, single replicates
[16] = HTRF IC50 Akt3, Mean, mean of replicates
[17] = HTRF IC50 Akt3, individual determinations, single replicates
[18] = IC50 Akt3, HTRF, ATP at KM, 1 h preincubation
[19] = read-out: HTRF IC50 Akt3, individual determinations, single replicates
[20] = Mus musculus, BaF3, parental cells, mean of replicates, read-out: CTG BaF3, Mean
[21] = Mus musculus, BaF3, parental cells, single replicates, read-out: CTG BaF3, individual determinations
[22] = parental cells, single replicates, read-out: CTG BaF3, individual determinations
[23] = Mus musculus, read-out: CTG BaF3myr-Akt1, Mean, mean of replicates
[24] = Mus musculus, read-out: CTG BaF3myr-Akt1, individual determinations, single replicates
[25] = read-out: CTG BaF3myr-Akt1, individual determinations, single replicates
[26] = HTRF IC50 Akt2, Mean, mean of replicates
[27] = HTRF IC50 Akt2, individual determinations, single replicates
[28] = IC50 Akt2, HTRF, ATP at KM, 1 h preincubation
[29] = Mus musculus, read-out: CTG BaF3myr-Akt2, individual determinations, single replicates
[30] = Mus musculus, read-out: EC50 BaF3myr-Akt1, CTG

Row | Compound | IC50 [1, 8] [µM] | IC50 [1, 9] | IC50 [1, 10] [µM] | Log ratio IC50 [Akt] / IC50 [Akt], Akt1 / Akt2 [1] | EC50 [2, 11] [µM] | EC50 [2, 12] | EC50 [3, 13] [µM] | EC50 [3, 14] [µM] | Log ratio EC50 [Akt] / EC50 [Akt], Akt3 / Akt2 [3] | EC50 [3, 15] | IC50 [4, 16] [µM] | IC50 [4, 17] | IC50 [4, 18] [µM] | EC50 [5, 21] [µM] | EC50 [5, 22] | EC50 [6, 23] [µM] | EC50 [6, 24] [µM] | Log ratio EC50 [Akt] / EC50 [Akt], Akt1 / Akt2 [6] | EC50 [6, 25] | IC50 [7, 27] | other results
1 | C=CC(=O)Nc1ccc2[nH]c(=O)n(C3CCN(Cc4ccc(-c5ncc(CN6CCCC6)cc5-c5ccccc5)cc4)CC3)c2c1 [compound 7] | 7.09 | 10 µM and 10.5 µM and 4.2 µM and 7.74 µM and 8.28 µM and 1.75 µM | 7.09 ± 3.44 | 1.17 | 1.78 | 1.58 µM and 3 µM and 1.35 µM and 1.19 µM | 2.51 | 2.06 | -0.15 | 1.92 µM and 3.02 µM and 3.04 µM | > 20 | > 20 µM | > 20 | 6.97 | 8.01 µM and 10.4 µM | 4.71 | 4.23 | 0.42 | 4.27 µM and 4.14 µM and 6.2 µM | 0.535 µM and 0.351 µM and 0.552 µM | IC50 [4, 19]: > 20 µM; EC50 [5, 20]: 8.46 µM; IC50 [7, 26]: 0.479 µM; IC50 [7, 28]: 0.479 ± 0.091 µM
2 | C=CC(=O)Nc1ccc2[nH]c(=O)n(C3CCN(Cc4ccc(-c5ncc(C(=O)N6CCCC6)cc5-c5ccccc5)cc4)CC3)c2c1 [compound 8] | 4.57 | 4.34 µM and 4.53 µM and 4.82 µM | 4.57 ± 0.197 | 0.34 | 12.8 | 12.4 µM and 14.1 µM | 26.5 | 23.6 | -0.32 | 28.3 µM and 27 µM | > 20 | > 20 µM | > 20 | 17.3 | 20.7 µM and > 30 µM | > 30 | > 30 | 0.37 | > 30 µM | 1.92 µM and 4.34 µM and 2.21 µM | EC50 [2, 29]: 11.8 µM; IC50 [4, 19]: > 20 µM; EC50 [6, 30]: > 30 µM; drop in affinity of the amide-linked version (7 vs. 8) ([7]; Akt2, biochemical IC50): 5 fold; IC50 [7, 28]: 2.07 ± 0.147 µM
3 | C=CC(=O)Nc1ccc2[nH]c(=O)n(C3CCN(Cc4ccc(-c5ncc(Cc6cnn(C)c6)cc5-c5ccccc5)cc4)CC3)c2c1 [compound 12] | 1.28 | 1.29 µM (2×) and 1.26 µM | 1.28 ± 0.018 | 0.71 | 3.05 | 2.1 µM and 3.52 µM | 5.29 | – | -0.24 | 9.47 µM and 3.28 µM and 3.12 µM | 0.607 | 0.64 µM and 0.477 µM and 0.703 µM | 0.607 ± 0.095 | 17.5 | > 30 µM and 26.7 µM | 8.29 | 7.5 | 0.43 | 10.1 µM and 7.32 µM | 0.27 µM and 0.352 µM and 0.233 µM | EC50 [2, 29]: 3.04 µM; IC50 [7, 26]: 0.251 µM; IC50 [7, 28]: 0.251 ± 0.018 µM
4 | C=CC(=O)Nc1ccc2[nH]c(=O)n(C3CCN(Cc4ccc(-c5ncc(CNCC(C)C)cc5-c5ccccc5)cc4)CC3)c2c1 [compound 9] | 5.93 | 6.84 µM and 5.56 µM and 5.38 µM | 5.93 ± 0.793 | 0.15 | 13.6 | 12.5 µM | 14.1 | 15.9 | -0.02 | 18.6 µM and 9.33 µM and 12.7 µM | 8.37 | 6.9 µM and 10.4 µM and 7.86 µM | 8.37 ± 1.78 | > 30 | 28.5 µM and > 30 µM | > 30 | > 30 | 0.34 | > 30 µM | 4.62 µM and 3.65 µM and 4.37 µM | EC50 [2, 29]: 17.2 µM; EC50 [6, 30]: > 30 µM; IC50 [7, 26]: 4.21 µM; IC50 [7, 28]: 4.21 ± 0.412 µM
5 | C=CC(=O)Nc1ccc2[nH]c(=O)n(C3CCN(Cc4ccc(-c5ncc(C)cc5-c5ccccc5)cc4)CC3)c2c1 [compound 2] | 0.0218 | 0.0221 µM and 0.0229 µM and 0.0205 µM | 0.022 ± 0.002 | -0.83 | 2.79 | 3.99 µM and 1.13 µM and 1.58 µM | > 30 | > 30 | -0.46 | > 30 µM | 7.51 | 7.41 µM and 4.78 µM and 10.2 µM and 5.33 µM and 9.79 µM | 7.51 ± 1.82 | 13.2 | 10.3 µM and 10.9 µM | 3.1 | 2.81 | 0.05 | 3.52 µM and 2.96 µM | 0.156 µM and 0.149 µM and 0.144 µM | EC50 ([3]; Mus musculus, read-out: EC50 BaF3myr-Akt3, CTG): > 30 µM; EC50 [5, 20]: 11.5 µM; IC50 [7, 26]: 0.15 µM; IC50 [7, 28]: 0.15 ± 0.005 µM
6 | C=CC(=O)Nc1ccc2[nH]c(=O)n(C3CCN(Cc4ccc(-c5ncc(Cc6cccc(N)c6)cc5-c5ccccc5)cc4)CC3)c2c1 [compound 17] | 2.85 | 2.55 µM and 3.9 µM and 2.12 µM | 2.85 ± 0.758 | 1.33 | 3.75 | 4.24 µM and 2.81 µM | 22 | 21.7 | -0.77 | 17.8 µM and 24.3 µM | 2.11 | 1.48 µM and 2.41 µM and 2.43 µM | 2.11 ± 0.441 | > 30 | > 30 µM | > 30 | > 30 | 0.90 | > 30 µM | 0.136 µM and 0.142 µM and 0.121 µM | EC50 [2, 29]: 3.2 µM; EC50 ([5]; Mus musculus, BaF3, CTG, parental BaF3 cell line, read-out: EC50 BaF3): > 30 µM; EC50 [5, 20]: > 30 µM; EC50 [6, 30]: > 30 µM; IC50 [7, 26]: 0.133 µM; IC50 [7, 28]: 0.133 ± 0.009 µM
7 | NC1(c2ccc(-c3nc4ccn5c(=O)[nH]nc5c4cc3-c3ccccc3)cc2)CCC1 [MK-2206, reference compound] | – | – | – | – | 1.34 | 1.97 µM and 0.931 µM and 1.12 µM | 5.73 | 5.9 | – | 5.57 µM | – | – | – | 6.96 | 5.09 µM and 9.92 µM | 1.12 | 1.16 | – | 0.987 µM and 1.22 µM | – | EC50 [5, 20]: 7.39 µM
